In data set [1] the test system is CT26 colon tumors. As to the kind of experiment: Syngeneic CT26 mouse colon cancer model. The settings on record: CPI-444 100 mg/kg oral Day 0, 12 days, anti-PD-1 100 ug i.p. days 7, 9, 11, 13.
From the text: Treatment continued for 12 days.
Treatment continued for 7 days. […] Treatment continued for 7 days.
Treatment continued for 7 days.
Data set [2] deals with T1, A2AR (Homo sapiens, UniProt P29274). As to the kind of experiment: IL-2 and IFNγ secretion from activated primary human PBMCs (AlphaLISA). Format: cell-based. Also on record: endogenous in cells; host or cells: primary human T cells / human PBMCs. The settings on record: CPI-444 1 μM; NECA or CGS21680 1 μM; anti-CD3/anti-CD28 48 hours. The method, then: Purified anti-CD3 and anti-CD28 monoclonal antibodies (1 ug/ml) were then added to activate T cells for 48 hours.
Purified anti-CD3 and anti-CD28 monoclonal antibodies (1 ug/ml) were then added to activate T cells for 48 hours. In this study, AlphaLISA assays (PerkinElmer) analyzed on an EnVision MultiLabel Reader were used to measure cytokine release according to the manufacturer's instructions.

The test system of data set [3] is NECA-induced pCREB in CD4+ T cells. As to the kind of experiment: NECA-induced pCREB in CD4+ T cells of whole blood of treated patients (flow cytometry).
Method: (§1) On day 14, blood was collected prior to dosing (0 hr, trough) and for a time course post-dose (1.5, 3, 5.5, 8 hr) (FIGS. 26-28). The level of signaling was determined and the percent inhibition on Day 14 compared to Day 1 pre-treatment was calculated.
The target of data set [4] is T1, A2AR. As to the kind of experiment: pERK in human CD4+ T cells after TCR cross-linking. The settings on record: in the presence of NECA (1 μM).
Data set [5] relates to NECA-induced pCREB in B cells. The data set is described as follows: NECA-induced pCREB in B cells of whole blood of treated patients (flow cytometry).
Method: as §1
The conditions of data set [6]: cited from earlier work.
The target in data set [7] is T1, A2AR. The data set is described as follows: pCREB in fresh PBMCs (B cell population) stimulated with NECA. The settings on record: primarily B cells.
From the text: Adenosine signaling via A2AR leads to an increase in intracellular cAMP and subsequent phosphorylation of CREB.
Data set [8] concerns EL4 lymphoma. The data set is described as follows: Syngeneic EL4 mouse lymphoma model. Format: in vivo. The settings on record: CPI-444 10, 30, 100 mg/kg daily oral. On the procedure:
Syngeneic C57BL/6 female mice (8-10 weeks old) were injected (via subcutaneous route) with EL4 cells.

Data set [9] deals with T1, A2AR. As to the kind of experiment: cAMP production in NECA-stimulated primary human T cells (LANCE Ultra cAMP). Format: cell-based. Also on record: endogenous in cells; host or cells: primary human T cells / human PBMCs. The method, then:
Adenosine signaling through A2AR leads to increases in the levels of cAMP.
T cells were isolated from human PBMC by negative selection and activated via CD3/CD28 stimulation for 48 hours to induce A2AR expression. Stimulated T cells were then “rested” for 24 hours by removal of CD3/CD28 stimulation in order to minimize background levels of cAMP.

In data set [10] the test system is MC38 colon tumors. The data set is described as follows: Syngeneic MC38 mouse colon carcinoma model.
Data set [11] in a line: Plasma levels of CPI-444 in patients. The format is in vivo, human. The settings on record: Day 14.
In data set [12] the test system is solid tumor patients. The data set is described as follows: Phase 1/1b clinical trial in solid tumor patients. The format is in vivo, human. The method, then: After a dose selection stage, pts are treated in 10 disease specific cohorts (5 single agent and 5 combination). Cohorts may be expanded based on response criteria: complete response, partial response or stable disease (SD). Biomarkers are evaluated including immune cells by flow cytometry in peripheral blood and pre/post treatment tumor biopsies as well as adenosine pathway modulation by immunohistochemistry and gene expression.
In step 1 of the trial, patients were dosed with either 100 mg BID for 14 days out of a 28 day cycle, 100 mg BID for 28 days, 200 mg QD for 14 days or 50 mg or 100 mg BID for 14 days in combination with […]® (840 mg Q2W). Pharmacodynamic analysis was conducted on peripheral blood cells to inform dose selection. Step 1 of Phase1/1b was fully enrolled (n=48) and dose was selected (100 mg BID) based on pharmacodynamic analysis of A2AR pathway.

In data set [13] the test system is Renca. The settings on record: CPI-444 10 mg/kg from Day 16, 14 days; 50 mg/kg Cyclophosphamide on first day.

Structures are written as SMILES. Several values for one entry are separate records, joined by “and”; a condition that tells them apart may be missing. Equal entries are not always repeated. Entries after “also recorded” stand apart in the source; their conditions may differ.

T1 sequence (P29274 whole entry): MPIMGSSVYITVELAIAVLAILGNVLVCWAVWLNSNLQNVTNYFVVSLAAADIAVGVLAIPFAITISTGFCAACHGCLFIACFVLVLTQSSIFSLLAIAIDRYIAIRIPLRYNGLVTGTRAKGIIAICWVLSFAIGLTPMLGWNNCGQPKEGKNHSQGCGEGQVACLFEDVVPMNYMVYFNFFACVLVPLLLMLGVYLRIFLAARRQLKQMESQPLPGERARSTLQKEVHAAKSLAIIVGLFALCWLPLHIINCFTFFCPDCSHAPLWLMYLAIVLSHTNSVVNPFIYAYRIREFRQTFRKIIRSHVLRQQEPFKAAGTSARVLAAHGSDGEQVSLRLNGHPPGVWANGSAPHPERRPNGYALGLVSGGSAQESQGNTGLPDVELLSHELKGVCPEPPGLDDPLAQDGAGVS

For `Cc1ccc(-c2nc(N)nc3c2nnn3Cc2cccc(COC3CCOC3)n2)o1` (centres unmarked) [CPI-444], the “tumor growth, single agents” value in data set [1] is on record as “inhibition of tumor growth; also recorded: inhibits the growth; also recorded: non-significant reductions in tumor growth”; in data set [10] (CPI-444 100 mg/kg from Day 9, anti-CTLA-4 100 ug), “moderate tumor growth inhibition”; in data set [10] (CPI-444 100 mg/kg oral Day 0, 12 days, anti-PD-L1 200 ug i.p. days 7, 10, 13, 16), “inhibition of tumor growth”. The “IFNγ secretion in presence of A2AR agonist” value in [2] is listed as “restored”. Moreover, the “IL-2 secretion in presence of A2AR agonist” value in data set [2] is reported as “restored”. Besides, the “CPI-444 plasma level above which pCREB inhibition is near complete” value in [3] was “greater than 2,000 ng/mL”. The “ERK signaling / pERK levels in CD4+ T cells” value in [4] was “restored pERK levels in a dose-dependent manner”. Also, the “inhibition of pCREB” value in data set [5] (50 mg BID cohort) is “not high enough for sustained inhibition; also recorded: Variable inhibition”; in [5] (100 mg BID cohort), “highest pCREB inhibition at trough and near complete inhibition after taking their morning dose; also recorded: high pCREB inhibition at trough and near complete inhibition after taking their morning dose”; in [5] (200 mg QD cohort) it was “achieves high peak levels but is not maintained at trough; also recorded: Variable inhibition”. Besides, the “patients with complete and sustained inhibition of NECA-induced pCREB” value in data set [5] (100 mg BID single agent, Day 14) was 7 of 7. The “pCREB induction by NECA” value in [5] (following 14 days of treatment) is listed as “attenuated”. In addition, the “inhibition of NECA induced increase of pCREB” value in data set [5] (one subject, 200QD for 14 days, 1 μM NECA) is recorded as “partial inhibition”. For the same molecule, the adverse events entry in data set [6] (75 subjects previously dosed) is recorded as “no significant adverse events”. Besides, the tolerability result in data set [6] (non-oncology indications) and in data set [12] (solid tumor patients) was “well tolerated” throughout. Moreover, the “NECA-induced CREB phosphorylation” value in [7] is given as “completely inhibited”. In addition, in data set [8], the “response of established primary tumors” value was “minimal therapeutic response”. Moreover, the “tumor growth in regional lymph nodes (number and size of enlarged nodes)” value in data set [8] is on record as “significant dose-dependent inhibition; also recorded: significant, dose-dependent decrease”. Also, in [9] (FIG. 6), the “cAMP production upon NECA stimulation, dependence on CPI-444 dose” value is recorded as “dose-dependent manner”. Also, the “production of cAMP upon NECA treatment” value in data set [9] (all levels of NECA tested (10^-5 to 10^-9 M), 10 minutes) is “completely blocked”. Also, the “mice in which rechallenge tumors were fully rejected” value in [10] (9 mice rechallenged, over 15 days after first 5 days) turned out to be 9 mice. The tumor growth result in [10] (CPI-444 1 mg/kg daily oral gavage 28 days, from one day after engraftment) is reported as “did not inhibit tumor growth”; in data set [10] (CPI-444 10 mg/kg daily oral, 10 mg/kg), “significantly inhibits; also recorded: significant inhibition of tumor growth”; in [10] (CPI-444 100 mg/kg daily oral, 100 mg/kg) it was “significantly inhibits; also recorded: significant inhibition of tumor growth”. Also, in data set [10] (CPI-444 100 mg/kg from Day 9, 14 days, anti-CTLA-4 9H10 100 ug days 9, 12, 15, 18), the eliminates tumors is 20 % of mice. Moreover, the eliminated tumors in data set [10] (CPI-444 dose response study) is 30 % of mice. In addition, the “tumor growth on re-challenge of cured mice” value in data set [10] (MC38 re-challenge) is “fully inhibited”. Besides, the signs of reoccurrence entry in data set [10] (additional 6 weeks after end of study) was “No tumor growth was observed”. In addition, the complete tumor regression entry in data set [10] (all cohorts (1, 10, 100 mg/kg)) is “observed in a subset of mice”. Moreover, the “inhibition of tumor growth, dose response” value in [10] (daily CPI-444 1, 10, 100 mg/kg) is “dose-dependent inhibition”. In addition, the tumor elimination in data set [10] (daily CPI-444 1, 10, 100 mg/kg) was 9/30. This molecule also gave a protected from rechallenge in data set [10] (mice with complete tumor growth inhibition, new MC38 engraftment, no additional treatment) of 100%. Besides, the “levels of immune checkpoints GITR, OX40, LAG3 on tumor infiltrating lymphocytes and circulating T cells” value in data set [10] (mouse, in vivo) is listed as “modulated”. Moreover, the “CD73 expression in tumors (IHC, frequency x intensity)” value in data set [10] (relative to control) is given as “significantly higher”. For the same molecule, the “time of peak plasma drug levels” value in data set [11] stood at 3 h. For the same molecule, the “Grade 3 or 4 treatment related adverse events” value in data set [12] (7 pts treated to date) is listed as “no Grade 3 or 4 treatment related adverse events”. Further, the “TCR clonality following treatment” value in data set [12] (Nivolumab-refractory lung cancer patient, FIG. 21C) is “increased clonality”. The tumor response entry in data set [12] (Nivolumab-refractory lung cancer patient, single agent 100 mg po BID x 28 days/cycle) is “Tumor regression”. Moreover, the “PD-1+/CD8+ (activated CD8) and memory cell frequencies in blood” value in data set [12] (single agent and combination cohorts) is given as “Increases”. In addition, in data set [12] (single agent, some patients), the “TCR repertoire in peripheral blood” value is listed as “robust changes; also recorded: induced”. Besides, the “increases in PD-1+CD8+ cells in peripheral blood compared to baseline” value in [12] (the two pts with SD) was 1.7 fold and 2.4 fold.
`COc1cccc2c1C(=O)c1c(O)c3c(c(O)c1C2=O)C[C@@](O)(C(=O)CO)C[C@@H]3O[C@H]1C[C@H](N)[C@H](O)[C@H](C)O1` [Doxorubicin, reference compound]: in data set [10] (CPI-444 100 mg/kg from Day 11, 14 days, 4 mg/kg Doxorubicin on first day), the tumor growth entry was “slight tumor growth inhibition”.
As for `O=P1(N(CCCl)CCCl)NCCCO1` (centres unmarked) [Cyclophosphamide], the “tumor growth / response rate” value in data set [13] is on record as “slight tumor growth inhibition”.

The values above are taken from patent publication US20190022096A1, “METHODS OF TREATING CANCER” (Corvus Pharmaceuticals, Inc., priority 2017, published 2019).
